Measurements published in patent US8362000B2, “Azetidinyl diamides as monoacylglycerol lipase inhibitors” (Janssen Pharmaceutica NV, priority 2009, dated 2013).
Residue numbers refer to the chain shown, from its start. pIC50, pKd: −log10 of the molar value. Like-named read-outs stand apart in the source and are kept apart here.

Columns and labels:
[1] = target: T1, purified wild type MGL (wt-MGLL 6H-11-313) (Homo sapiens, UniProt Q99685)
T1 sequence (Q99685 1-303): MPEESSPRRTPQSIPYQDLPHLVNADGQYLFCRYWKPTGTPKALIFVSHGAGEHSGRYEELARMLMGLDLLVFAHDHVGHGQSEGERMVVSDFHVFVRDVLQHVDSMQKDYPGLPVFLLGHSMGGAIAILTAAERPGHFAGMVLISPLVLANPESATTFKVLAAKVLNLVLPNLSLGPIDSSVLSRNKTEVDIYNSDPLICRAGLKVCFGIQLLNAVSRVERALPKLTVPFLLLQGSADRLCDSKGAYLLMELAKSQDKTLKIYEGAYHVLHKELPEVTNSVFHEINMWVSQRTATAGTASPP

[2] = target: T2, mutant MGL (Homo sapiens, UniProt Q99685, L169S/L176S); assay: MGL ThermoFluor assay - mutant; assay type: binding; conditions: for Kd: read-out: MGL mutant ThermoFluor qKd (μM) (using qNMR conc.)
T2 sequence (Q99685 1-303 L169S/L176S): T1 sequence (Q99685 1-303) with L169S, L176S
Experimental: The ThermoFluor (TF) assay is a 384-well plate-based binding assay that measures thermal stability of proteins^1,2. […] TF dye used in all experiments was 1,8-ANS (Invitrogen: A-47). Final TF assay conditions used for MGL studies were 0.07 mg/ml of mutant MGL, 100 μM ANS, 200 mM NaCl, 0.001% Tween-20 in 50 mM PIPES (pH=7.0).
Screening compound plates contained 100% DMSO compound solutions at a single concentration. […] Columns 12 and 24 were used as DMSO reference and contained no compound. […] Following compound dispension, protein and dye solutions were added to achieve the final assay volume of 3 μL.
Bar-coded assay plates were robotically loaded onto a thermostatically controlled PCR-type thermal block and then heated from 40 to 90° C. degrees at a ramp-rate of 1° C./min for all experiments. Fluorescence was measured by continuous illumination with UV light (Hamamatsu LC6), supplied via fiber optics and filtered through a band-pass filter (380-400 nm; >60D cutoff). Fluorescence emission of the entire 384-well plate was detected by measuring light intensity using a CCD camera (Sensys, Roper Scientific) filtered to detect 500±25 nm, resulting in simultaneous and independent readings of all 384 wells. A single image with 20-sec exposure time was collected at each temperature, and the sum of the pixel intensity in a given area of the assay plate was recorded vs temperature and fit to standard equations to yield the Tm^1. • 1.
For some experiments, quantitative NMR spectroscopy (qNMR) was used to measure concentration of the initial 100% DMSO compound solutions and, using the same fitting method, qKd values were determined

[3] = target: T3, MGL (Rattus norvegicus, UniProt Q8R431); assay: 2-AG accumulation assay in rat brain homogenate; assay type: biochemical; conditions: rat brain homogenate; compound 1 μM; 2-AG accumulation as percent of vehicle; read-out: Rat Brain 2AG % VehCntrl (%) @ 1 μM
T3 construct: one g rat brain was homogenized using a Polytron homogenizer; from tissue; host or cells: rat brain homogenate
T3 sequence (Q8R431 1-303): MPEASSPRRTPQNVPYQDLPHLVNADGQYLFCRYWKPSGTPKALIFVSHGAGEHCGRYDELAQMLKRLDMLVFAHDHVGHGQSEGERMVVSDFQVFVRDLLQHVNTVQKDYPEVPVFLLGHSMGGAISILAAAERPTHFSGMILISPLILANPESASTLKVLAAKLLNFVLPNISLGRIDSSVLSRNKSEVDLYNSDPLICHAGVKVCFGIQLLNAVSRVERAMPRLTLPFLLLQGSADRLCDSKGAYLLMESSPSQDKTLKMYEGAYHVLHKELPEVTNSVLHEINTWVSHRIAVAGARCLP

[4] = ThermoFluor concentration-response, read-out: MGL mutant ThermoFluor Kd
[5] = ThermoFluor thermal stability binding assay, read-out: MGL mutant ThermoFluor Kd
[6] = compound concentration measured by qNMR, read-out: MGL mutant ThermoFluor qKd (using qNMR conc.)
[7] = ThermoFluor, compound concentration measured by qNMR
[8] = ThermoFluor, compound concentration measured by qNMR, read-out: MGL mutant ThermoFluor qKd (using qNMR conc.)

Structure (SMILES)	pIC50 [1]	pKd [2, 4]	2-AG accumulation, % of vehicle control at 1 µM [3]	pKd [2, 5]	pKd [2, 6]	Kd [2, 7]	pKd [2, 8]
O=C(c1cc(F)c2c(ccn2-c2ccc(F)cc2)c1)N1CC(N2CCN(C(=O)c3nccs3)CC2)C1 [Cpd 1350, 7-Fluoro-1-(4-fluorophenyl)-5-({3-[4-(1,3-thiazol-2-ylcarbonyl)piperazin-1-yl]azetidin-1-yl}carbonyl)-1H-indole]	> 8.30		873%		9.00		
O=C(c1ccccc1)N1CCN(C2CN(C(=O)c3sc4ccc(Cl)cc4c3C(F)(F)F)C2)CC1 [Cpd 506]	7.32	7.23	132%				
Cn1ccc2cc(C(=O)N3CC(N4CCN(C(=O)c5nccs5)CC4)C3)cc(-c3cccc(C(F)(F)F)c3)c21 [Cpd 1060]	8.22		671%			0.032 µM	
O=C(c1ccc2c(c1)CCN2Cc1cccc(C(F)(F)F)c1)N1CC(N2CCN(C(=O)c3nccs3)CC2)C1 [Cpd 881]	> 8.30	8.22	847%				
O=C(c1ccc2c(c1)CCN(c1ccccc1)C2)N1CC(N2CCN(C(=O)c3nccs3)CC2)C1 [Cpd 883]	> 8.30		767%	7.23			
O=C(c1nccs1)N1CCN(C2CN(C(=O)c3sc4cc(Cl)ccc4c3C(F)(F)F)C2)CC1 [Cpd 664]	7.96	8.22	498%				
O=C(c1ccc(-c2ccccc2)cc1)N1CCN(C2CN(C(=O)c3ncco3)C2)CC1 [Cpd 1283, 1-(Biphenyl-4-ylcarbonyl)-4-[1-(1,3-oxazol-2-ylcarbonyl)azetidin-3-yl]piperazine]	5.66	6.28	62%				
NC(=O)c1cccc(-n2ccc3cc(C(=O)N4CC(N5CCN(C(=O)c6nccs6)CC5)C4)ccc32)c1 [Cpd 1177]	7.20		895%			0.088 µM	
N#Cc1ccccc1-n1ccc2cc(C(=O)N3CC(N4CCN(C(=O)c5cscn5)CC4)C3)ccc21 [Cpd 1182]	7.10		547%			0.21 µM	
O=C(c1ccc2c(ccn2-c2ccc(C(F)(F)F)cc2)c1)N1CCN(C2CN(C(=O)c3ccc[nH]3)C2)CC1 [Cpd 1120, 5-({4-[1-(1H-Pyrrol-2-ylcarbonyl)azetidin-3-yl]piperazin-1-yl}carbonyl)-1-[4-(trifluoromethyl)phenyl]-1H-indole]	7.74		867%				7.70
O=C(c1ccc2c(c1)CCN(Cc1ccccc1)C2)N1CC(N2CCN(C(=O)c3nccs3)CC2)C1 [Cpd 680, 2-Benzyl-6-({3-[4-(1,3-thiazol-2-ylcarbonyl)piperazin-1-yl]azetidin-1-yl}carbonyl)-1,2,3,4-tetrahydroisoquinoline]	7.60		356%	7.28			
COc1ccc(-c2cccc(C(=O)N3CC(N4CCN(C(=O)c5nccs5)CC4)C3)c2)cc1 [Cpd 1091]	7.96	5.78	450%				
Cc1sc(C(=O)N2CC(N3CCN(C(=O)c4nccs4)CC3)C2)cc1-c1cccc(C(F)(F)F)c1 [Cpd 1351]	> 8.30		718%			0.043 µM	
COc1ccc(-n2ccc3cc(C(=O)N4CC(N5CCN(C(=O)c6ccc[nH]6)CC5)C4)ccc32)cn1 [Cpd 1176, 1-(6-Methoxypyridin-3-yl)-5-({3-[4-(1H-pyrrol-2-ylcarbonyl)piperazin-1-yl]azetidin-1-yl}carbonyl)-1H-indole]	7.15		378%				6.79
Cc1c(C(=O)N2CC(N3CCN(C(=O)c4nccs4)CC3)C2)[nH]c2ccc(Cl)cc12 [Cpd 688, 5-Chloro-3-methyl-2-({3-[4-(1,3-thiazol-2-ylcarbonyl)piperazin-1-yl]azetidin-1-yl}carbonyl)-1H-indole]	7.36	7.34	373%				

Further lines, results first:

pIC50 [1]	pKd [2, 4]	2-AG accumulation, % of vehicle control at 1 µM [3]	pKd [2, 5]	pKd [2, 6]	Kd [2, 7]	pKd [2, 8]	Structure (SMILES)
> 8.30	8.03	436%					O=C(c1ccc(Oc2cccc(C(F)(F)F)c2)cc1)N1CC(N2CCN(C(=O)c3nccs3)CC2)C1 [Cpd 424, 1-(1,3-Thiazol-2-ylcarbonyl)-4-[1-({4-[3-(trifluoromethyl)phenoxy]phenyl}carbonyl)azetidin-3-yl]piperazine]
< 4.78		110%	< 4.51				Cc1cc(C(=O)N2CCN(C3CN(C(=O)c4ccc(-c5ccccc5)cc4)C3)CC2)no1 [Cpd 1465]
7.20	6.75	931%					O=C(c1nccs1)N1CCN(C2CN(C(=O)c3cccc(-c4ccccc4)c3F)C2)CC1 [Cpd 1172]
8.10	7.54	359%					CCCc1ccc(C(=O)N2CC(N3CCN(C(=O)c4nccs4)CC3)C2)cc1 [Cpd 655]
> 8.30	8.70	486%					O=C(c1nccs1)N1CCN(C2CN(C(=O)c3sc4ccc(-c5ccccc5)cc4c3F)C2)CC1 [Cpd 1315, 1-{1-[(3-Fluoro-5-phenyl-1-benzothiophen-2-yl)carbonyl]azetidin-3-yl}-4-(1,3-thiazol-2-ylcarbonyl)piperazine]
7.42		394%	8.15				Cc1cn(-c2ccccc2)c2ccc(C(=O)N3CC(N4CCN(C(=O)c5cscn5)CC4)C3)cc12 [Cpd 1152]
> 8.30		575%	8.22				O=C(c1ccc(-c2cccc(C(F)(F)F)c2)cc1)N1CC(N2CCN(C(=O)c3ccc[nH]3)CC2)C1 [Cpd 1325]
> 8.30		803%				8.00	O=C(c1ccc(-c2nc(-c3ccc(Cl)c(Cl)c3)cs2)cc1)N1CC(N2CCN(C(=O)c3nccs3)CC2)C1 [Cpd 1331]
7.72		851%		7.18			O=C(c1ccc(F)cc1)c1c[nH]c2cc(C(=O)N3CC(N4CCN(C(=O)c5nccs5)CC4)C3)ccc12 [Cpd 1025]
7.59	8.00	582%					Cn1nc(-c2ccccc2)c2cc(C(=O)N3CC(N4CCN(C(=O)c5nccs5)CC4)C3)ccc21 [Cpd 1137, 1-Methyl-3-phenyl-5-({3-[4-(1,3-thiazol-2-ylcarbonyl)piperazin-1-yl]azetidin-1-yl}carbonyl)-1H-indazole]
> 8.30		963%				8.10	O=C(c1ccc2c(ccn2-c2ccc(C(F)(F)F)nc2)c1)N1CC(N2CCN(C(=O)c3nccs3)CC2)C1 [Cpd 1312, 5-({3-[4-(1,3-Thiazol-2-ylcarbonyl)piperazin-1-yl]azetidin-1-yl}carbonyl)-1-[6-(trifluoromethyl)pyridin-3-yl]-1H-indole]
6.77	6.91	109%					O=C(c1ccccc1)N1CCN(C2CN(C(=O)c3ccc(Oc4cccc(C(F)(F)F)c4)cc3)C2)CC1 [Cpd 419, 1-(Phenylcarbonyl)-4-[1-({4-[3-(trifluoromethyl)phenoxy]phenyl}carbonyl)azetidin-3-yl]piperazine]
7.36	8.40	698%					CCCn1ccc2cc(C(=O)N3CC(N4CCN(C(=O)c5nccs5)CC4)C3)ccc21 [Cpd 687]
